Series [1] has as its system primary cortical neuronal cultured cells. Description: Test compound cytotoxicity, MTS assay, primary cortical neuronal cultures. In kind it is cell-based, mouse. A digest of the protocol: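 Primary cortical neurons were cultured five days in Neurobasal/B27, then exposed on day six to compounds (from 2.5 mM DMSO stocks) in medium minus antioxidants, in triplicate for 4 days at 37° C. Viability was measured by MTS, 2 h at 37° C, absorbance at 560 nm.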
A general note: Tetrazolium assays rely on reduction of a dye to a coloured formazan, in cell work by metabolically active cells.

Series [2] deals with M17 human neuroblastoma cells. As to the kind of experiment: Cytotoxicity, M17 human neuroblastoma cells. In kind it is cell-based. Here is the method:
Assay 3. MTS Assay for Cell Viability
Cell viability is determined using the MTS assay. Culture medium is replaced with fresh neurobasal medium plus B27 supplements minus antioxidants. 1/10th volume MTS solution (Cell Titre 96 Aqueous One, Promega Corporation) and incubated at 37° C., 2 hrs. 200 microliter aliquots are measured with a spectrophotometer at 560 nm.

In series [3] the test system is Abeta in extract of post-mortem human AD brain tissue. Description: BAS: human brain amyloid solubilization assay. In kind it is biochemical. Particulars: max effect across the concentration range, referenced to baseline PBS. The method, boiled down:
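Plaque-bearing post-mortem AD cortex homogenised in ice-cold PBS pH 7.4; soluble Aβ in 100,000×g supernatant, insoluble Aβ from resuspended pellet. Fractions run on Tris-Tricine SDS-PAGE, immunoblotted with W02, densitometry against synthetic Aβ40 standards.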

Series [4] has as its system metal ions in retinal drusen. As to the kind of experiment: Post mortem retina screening, ZP1 zinc labeling of Bruch membrane. Particulars: 15 hours incubation; TPEN 100 μM, PB-1033 100 and 250 μM; 10 μM ZP1. How it is done:
Post Mortem Screening The BAS assay is adopted for post mortem retina. Using a trephine, 6 mm diameter regions of peripheral retina from frozen donor eyes are dissected. Following defrosting, the neuronal retina and the RPE cells are removed by gentle agitation in PBS buffer. Following removal of the RPE cells, strips of the Bruch membrane are cut from the eye. 4 samples are prepared: 1) Control […] Samples are then washed 3 times and the labeling visualized using a fluorescence and confocal microscope. A repeat of this procedure is performed with the exception that samples are incubated for a period of 15 hours before washing to determine differential metal binding over this longer period. The test results are in the form of fluorescence imaging from a confocal microscope of the 4 samples tested in this Example after 15 hours of sample incubation. […] Fluorescence microscopic photographs (which are in colour) are available upon request from the […].

In another series the test system is Aβ deposits. Particulars: daily oral gavage 30 mg/kg, 9 weeks, 13-14 months old transgenic mice.
The nature of series [5]: Toxicity, visual observations in mice. Particulars: 30 mg/kg; duration and visual observations.

For the compound `CN(C)Cc1ccc2c(Cl)cc(Cl)c(O)c2n1.Cl` [PB 1033], the “Cytotox (% viable) Neuronal cells at 1 μM” value in series [1] (1 μM test compound) stood at 84%. In series [1] (10 μM test compound), the “Cytotox (% viable) Neuronal cells at 10 μM” value worked out at 72%. The “Cytotox (% viable) M17 cells at 1 μM” value in series [2] (1 μM test compound) was 94%. In series [2] (10 μM test compound), the “Cytotox (% viable) M17 cells at 10 μM” value is reported as 54.3%. For the same compound, in series [3], the BAS max effect worked out at 470%. In addition, the “ZP1 (zinc sensor) labeling of post mortem Bruch membrane” value in series [4] is “inhibited ZP1 labeling”. In addition, in the series on Aβ deposits, the “Tg Mice % difference from control in Amyloid plaque abundance” value was −42%, the “Tg Mice % difference from control in insoluble brain amyloid burden” value is recorded as −29% and the “Tg Mice % difference from control in soluble brain amyloid burden” value was −37%. The “Toxicity at 30 mg/kg” value in series [5] was 10 days, none.

Source of the values: patent publication US9163018B2, “Method of treatment of age-related macular degeneration (AMD)” (Prana Biotechnology Limited, priority 2006, dated 2015).
